Results on 3 compounds are retold here after US7951772B2, “Tumor-activated prodrug compounds and treatment” (La Region Wallonne, priority 1994, dated 2011).

Structures are written as SMILES. ≈ marks a conversion by molar mass, not a printed value. Read-outs that look alike come from different tables or passages of the source.

In data set [1] the test system is conditioned medium from MCF7/6 mammary carcinoma cells. Put plainly: Degradation in conditioned medium from MCF7/6 mammary carcinoma cells (HPLC). The following applies: share of each species by HPLC; for Starting material or Metabolite, Time 0: β-Ala-Leu-Ala-Leu-DNR incubated at 37 C in MCF7/6 conditioned medium concentrated 20 of 40 times; for Starting material or Metabolite, After 1 hour / Starting material or Metabolite, After 2 hours: β-Ala-Leu-Ala-Leu-DNR incubated at 37 C in MCF7/6 conditioned medium.

Data set [2] has as its system conditioned medium from HepG2 hepatocarcinoma cells. Put plainly: Degradation in conditioned medium from HepG2 hepatocarcinoma cells. The following applies: β-Ala-Leu-Ala-Leu-DNR incubated at 37 C for 2 hours in HepG2 conditioned medium.
Data set [3] concerns conditioned medium from HT29 colon carcinoma cells.
Data set [4] has as its system MRC5 fibroblast cells. Kind of data set: Cytotoxicity with respect to MRC5 normal cells (72 h, Bradford protein). The settings on record: MRC5 cells; for IC50: 72 hours with compound then 48 hours without.
Description: (§7) After 72 hours, the cells are incubated for 48 hours in the absence of anthracycline, and the cytotoxicity is determined by measuring the cellular proteins by Bradford's technique. […] The experimental points are adjusted to a sigmoid curve which enables the point of inflection, corresponding to the dose at which half of the cells survive (IC50), to be calculated.
(§8) After 72 hours, the cells are incubated for 48 hours in the absence of the anthracycline, and the cytotoxicity is determined by measuring the cellular proteins by Bradford's technique. […] The experimental points are adjusted to a sigmoid curve which enables the point of inflection, corresponding to the dose at which half of the cells survive (IC50), to be calculated.
Data set [5] deals with conditioned medium from MCF7/6 mammary carcinoma cells.
Data set [6] deals with conditioned medium from HepG2 hepatocarcinoma cells.
Data set [7] concerns MRC5 fibroblast cells.
Description: as §7, §8
In data set [8] the test system is MCF7/6 human mammary carcinoma cells.
Description: as §7, §8
Data set [9] shares this test system. Kind of data set: Cytotoxicity with respect to MCF7/6 tumor cells (72 h, Bradford protein). The following applies: MCF7/6 cells; for IC50: 72 hours with compound then 48 hours without.
Description: as §7, §8
The test system is the same in data set [10]. This is another data set of the same source.
Description: (§9) After various times, the accumulation of the prodrugs and of their fluorescent metabolites were determined by HPLC after extraction of the products at basic pH according to a method developed in the laboratory. Accumulations, expressed in μg/mg of cellular proteins, were compared with those of DNR and of DOX as well as with those of L-Leu-DNR and L-Leu-DOX. The metabolites were identified by determining the retention times of reference products synthesized in the laboratory.
(§10) After various times, the accumulation of the prodrugs and of their fluorescent metabolites was determined by HPLC after extraction of the products at basic pH according to a method developed in the laboratory. Accumulations, expressed in μg/mg of cellular proteins, were compared with those of DOX and of L-Leu-DOX. The metabolites were identified by determining the retention times of reference products synthesized in the laboratory.
For data set [11], the system named is conditioned medium from anthracycline-resistant MCF7 cells (MCF7/ADR line). Kind of data set: Degradation in conditioned medium from MCF7/ADR mammary carcinoma cells. In kind it is in vitro ADME, human. The following applies: 37 C, 1 hour.
Data set [12] in a line: Degradation in human blood at 37 C.
For data set [13], the system named is female NMRI mice. Kind of data set: In vivo acute toxicity, intravenous route. The following applies: i.v., total dose of 60 mg/kg as two injections of 30 mg/kg on two consecutive days. Further details: species or system mouse.
Data set [14] relates to female NMRI mice. Put plainly: In vivo acute toxicity, intraperitoneal route, 5 consecutive days. Further details: species or system mouse. The following applies: for mortality: i.p. 5 consecutive days. The procedure:
(§1) In the in vivo study of the acute toxicity of a medicinal product, determination of the median lethal dose (lethal dose for 50% of the animals or LD50) occupies an important place. […] The LD50 is a simple test in which increasing amounts of the test product are administered intravenously (i.v.) in a single injection and intraperitoneally (i.p.) in 5 injections, one injection daily for 5 consecutive days. The mortality of the animals is monitored as a function of time. At the end of the observation period, usually 30 days, the value of the LD50 is obtained by linear regression of the percentage mortality (on a probit scale) as a function of the logarithm of the dose administered (O. K. Chan and A. W. Hayes, Principles and methods for acute toxicity and eye irritancy, in Principles and methods of toxicology, Second edition. Ed. by A. W. Hayes, Raven Press, New York, USA (1989), pp. 169-220; D. Deprez-De Campeneere and A. Trouet. DNA-Anthracycline Complexes. I. Toxicity in mice and chemotherapeutic activity against L1210 Leukaemia off Daunorubicin-DNA and Adriamycin-DNA, Eur. J. Cancer, 16 (1980), pp. 981-986; H. E. Skipper, L. H. Schmidt, A. Goldin and J. M. Venditti. A manual on quantitative drug evaluation in experimental tumor systems, Cancer Chemother. Rep. 17 (1.962), pp. 1-178).
(§2) The acute toxicity of these two drugs was studied via the i.v. and i.p. routes on a single strain of mouse. Female NMRI mice (nonconsanguineous SPF-Han, approximately 5 weeks old and of mean weight 14.6 grams, supplied by IFFA-CREDO Belgium) remained in quarantine for one week.
(§3) Injections were performed systematically in the morning (single injection into the caudal vein for the i.v. route and injections on 5 consecutive days into the peritoneum for the i.p. route), using 1.0 ml syringes and sterile 30 G (i.v.) and 27 G (i.p) needles. All handling of animals was performed with gloves, and maintenance of the animals was performed systematically every week.
(§4) DNR was injected i.v. at doses of 10, 15, 20, 25, 30 and 35 mg/kg and i.p. at doses of 2.0; 2.5; 3.0 and 3.5 mg/kg.
(§5) The concentrations of the solutions were verified by spectrophotometry.
(§6) From the day of injection (DO) onwards, the mice were monitored clinically, with a daily record of dead mice. The weight of the mice was measured almost every day. The observation period was extended beyond one month so that the signs of late toxicity could be spotted more readily. At the end of the study, the surviving mice were sacrificed, according to the standards pertaining to animal experiments (D. B. McGregor. Ethics in experiments on animals, in Experiments in toxicology, First edition. Ed. by D. Anderson and D. M. Conning. The Royal Society of Chemistry and The Universities Press. Belfast, Ireland (1988), pp. 512-522).

Data set [15] deals with female NMRI mice. Kind of data set: In vivo acute toxicity, intravenous route. Further details: species or system mouse; weight increase of the 3 surviving mice: dose or concentration left out as unconfirmed. The following applies: i.v.; for mice dying: groups of 5. Here is the method:
as §1, §2, §3, §4, §5, §6

Data set [16] concerns MRC5 fibroblast cells. Kind of data set: Accumulation in MRC5 normal fibroblast cells (HPLC of cell extracts).
Description: At various times, the accumulation of the prodrugs and of their fluorescent metabolites was determined by HPLC after extraction of the products at basic pH according to a method developed in the laboratory. Accumulations, expressed in μg/mg of cellular proteins, were compared with those of DNR and of L-Leu-DNR. The metabolites were identified by determining the retention times of reference products synthesized in the laboratory.
as §10
Data set [17] has as its system MCF7/6 human mammary carcinoma cells. Put plainly: Accumulation in MCF7/6 tumor cells (HPLC of cell extracts).
Description: as §9, §10
Where [18] appears, read: MRC5 cells, 6 hours of incubation, 10 μg eq. DNR/ml.
Where [19] appears, read: MCF7/6 cells, 6 hours of incubation, 10 μg eq. DNR/ml.

Regarding `COc1cccc2c1C(=O)c1c(O)c3c(c(O)c1C2=O)C[C@@](O)(C(C)=O)C[C@@H]3O[C@H]1C[C@H](NC(=O)[C@H](CC(C)C)NC(=O)[C@H](C)N)[C@H](O)[C@H](C)O1` [L-Ala-L-Leu-DNR], in data set [1], the “Starting material or Metabolite, Time 0” value came to 0%; the “Starting material or Metabolite, After 1 hour” value was less than 1%; the “Starting material or Metabolite, After 2 hours” value is listed as less than 1%. Moreover, the “main metabolites found, % of the total fluorescence” value (“main metabolites found, %” for short) in data set [2] turned out to be 8%.

`COc1cccc2c1C(=O)c1c(O)c3c(c(O)c1C2=O)C[C@@](O)(C(C)=O)C[C@@H]3O[C@H]1C[C@H](NC(=O)[C@@H](N)CC(C)C)C(O)[C@H](C)O1` (stereo partly drawn) [L-Leu-DNR, N-L-leucyldaunorubicin]: in data set [3], the “main metabolites found, %” value was determined as 82%. In data set [4], the IC50 worked out at 1.78 ± 0.23 µg/mL (≈ 2.78 µM). Moreover, in [5], the “Hydrolysis, MCF-7/6 Conditioned Medium” value was “−”; the “Starting material or Metabolite, After 1 hour” value is 83%; the “Starting material or Metabolite, After 2 hours” value turned out to be 90%; the “Starting material or Metabolite, Time 0” value was found to be 0%. In data set [6], the “main metabolites found, %” value was determined as 27%. For the same compound, the “times less cytotoxic than DNR” value in data set [7] stood at 172 times. Also, the “times less cytotoxic than DNR” value in data set [8] is on record as 14 times. Besides, the IC50 in [9] was 1.30 ± 0.56 µg/mL (≈ 2.03 µM). The “DNR found intracellularly, % of the total intracellular fluorescence” value in data set [10] is 14%.

Regarding `COc1cccc2c1C(=O)c1c(O)c3c(c(O)c1C2=O)C[C@@](O)(C(C)=O)C[C@@H]3O[C@H]1C[C@H](NC(=O)[C@H](CC(C)C)NC(=O)[C@H](C)NC(=O)[C@H](CC(C)C)NC(=O)CCN)[C@H](O)[C@H](C)O1` [β-Ala-Leu-Ala-Leu-DNR, β-alanyl-L-leucyl-L-alanyl-L-leucyldaunorubicin], the metabolite found result in data set [11] was “the only metabolite now to be found is L-Leu-DNR”. Moreover, the “stability when incubated in human blood” value in data set [12] is “stable”. The “times less cytotoxic than DNR” value is 2230 times in [4] (72 hours) and 244 times in data set [9] (72 hours). Moreover, the results for the IC50 in data set [4] and in [9] were 23.14 ± 4.81 µg/mL (≈ 25.8 µM) and 22.00 ± 7.31 µg/mL (≈ 24.6 µM), respectively. The mortality result in data set [13] was “no mortality”; in data set [14] (total dose of 60 mg/kg, groups of 5) it was 2 mice die on day 22 and a third on day 35; in [14] (total doses of between 10 and 45 mg/kg), “no mortality”; in data set [15] (dose of 30 mg/kg), “no mortality”. Besides, in [1], the “Starting material or Metabolite, Time 0” value came out at 100%. In [1], the “Starting material or Metabolite, After 1 hour” value is reported as 10%. In addition, in data set [1], the “Starting material or Metabolite, After 2 hours” value is on record as 2.6%. Also, the “times less toxic than DNR (acute toxicity)” value in [14] (i.p. administration on 5 consecutive days) is given as “at least 30 times”. The “LD50 (dose close to)” value in data set [14] (i.p. on 5 consecutive days, total dose) is listed as roughly 60 mg/kg. Also, in data set [14] (i.p., 45 mg/kg, over the next 30 days after 7 stable days), the “increase in mean weight” value is reported as 20%. The “day on which surviving mice recover their initial weight” value in data set [14] (i.p., total dose of 60 mg/kg) was 36 days. In data set [14] (i.p., total dose of 60 mg/kg, in 15 days), the “decrease of mean weight” value is recorded as roughly 15%. Further, the weight gain entry in [14] (i.p., total doses of between 10 and 45 mg/kg, in 40 days) is “+40%”. For the same compound, the results for the “time of death after injection” value in [15] and in [15] (120 mg/kg) were no more than 5 min and no more than 7 min, respectively. The “increase of mean weight” value in data set [15] (30 mg/kg, in 40 days) was roughly 40%. Besides, the mice dying in data set [15] (120 mg/kg) came out at 5; in [15], 2. Also, the “weight increase of the 3 surviving mice” value in [15] (in 40 days) is roughly 30%. For the same compound, the level of accumulation in data set [16] (MRC5 cells, 10 μg eq. DNR/ml, 24 hours of incubation) is ~3.3 μg/mg of cellular proteins. For the same compound, the figures for the “Intracellular concentration, DNR formed” value in data set [16] (setting [18]) and in data set [17] (setting [19]) were 0.08 μg/mg cellular proteins and 0.9 μg/mg cellular proteins, respectively. Also, the “Intracellular concentration, Leu-DNR formed” value stood at 3.1 μg/mg cellular proteins in data set [16] (setting [18]) and 4.5 μg/mg cellular proteins in data set [17] (setting [19]). In addition, the entries for the “Intracellular concentration, Starting material” value in data set [16] (setting [18]) and in data set [17] (setting [19]) were 0.03 μg/mg cellular proteins and 0.3 μg/mg cellular proteins, respectively. The “cell entry, times less than DNR” value in data set [16] (after 6 hours) is 300 times. For the same compound, in [17] (MCF7/6 cells, 10 μg eq. DNR/ml, 24 hours of incubation), the “level of accumulation (unchanged form)” value is recorded as ~1 μg/mg of cellular proteins. In addition, the “DNR found intracellularly, % of the total intracellular fluorescence” value in data set [17] (MCF7/6 cells, after 24 hours of incubation) was “approximately 40%”. Further, in data set [17] (after 24 hours of incubation), the “intracellular levels of DNR in MCF7/6 tumor line, times as high as in MRC5 fibroblasts” value is given as 12 times.
